What all share (assay): relative viability (nuclei count vs DMSO), 5 days (fraction); higher = more cells survive
Compound in test [1]: CNC(=O)c1ccccc1Sc1ccc2c(/C=C/c3ccccn3)n[nH]c2c1 [Axitinib] + CC(=O)Nc1cccc(-n2c(=O)n(C3CC3)c(=O)c3c(Nc4ccc(I)cc4F)n(C)c(=O)c(C)c32)c1 [Trametinib] (partner 0.02 µM)
The method, boiled down:
(§1)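 Lung cancer cell lines in 1536-well plates got either a single drug or a fixed anchor-drug dose together with five library-drug doses (not always all listed) in √10 steps, by pin tool, on the day after seeding. Nuclei were counted after 5 days, and relative viability is the treated-to-vehicle ratio of nuclei counts. Values are medians of duplicate plates.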

Compound in test [2]: CC1=CC=C(C=C1)C(=O)CN2C3=C(CCCC3)SC2=N [Pifithrin_alpha] + Cc1cc(Nc2cc(N3CCN(C)CC3)nc(Sc3ccc(NC(=O)C4CC4)cc3)n2)n[nH]1 [Tozasertib] (partner 0.1 µM)
The essentials: as §1

Compound in test [3]: CNC(=O)c1ccccc1Sc1ccc2c(/C=C/c3ccccn3)n[nH]c2c1 [Axitinib] + Nc1nc2[nH]cc(CCc3ccc(C(=O)N[C@@H](CCC(=O)O)C(=O)O)cc3)c2c(=O)[nH]1 [Pemetrexed] (partner 0.2 µM)
The method, boiled down: as §1

Compound in test [4]: Nc1nc(Nc2ccc3c(c2)CC[C@@H](N2CCCC2)CC3)nn1-c1cc2c(nn1)-c1ccccc1CCC2 [Bemcentinib] + Cc1nc(Nc2ncc(C(=O)Nc3c(C)cccc3Cl)s2)cc(N2CCN(CCO)CC2)n1 [Dasatinib] (partner 0.075 µM)
The method, boiled down: as §1

For the cell line EMC-BAC-2, the relative viability in test [1] (first compound 0.005 µM) turned out to be 0.952; in test [1] (first compound 0.01581 µM), 0.905; in test [1] (first compound 0.05 µM) it was 0.898; in test [1] (first compound 0.1581 µM) it was 0.926; in test [1] (first compound 0.5 µM), 0.88; in test [2] (first compound 1 µM), 0.272. Also, the relative viability came out at 0.288 in test [2] (first compound 3.162 µM); 0.283 in test [2] (first compound 10 µM); 0.248 in test [2] (first compound 100 µM); 0.476 in test [3] (first compound 0.005 µM); 0.464 in test [3] (first compound 0.01581 µM); 0.456 in test [3] (first compound 0.05 µM). The relative viability in test [3] (first compound 0.1581 µM) came out at 0.461; in test [3] (first compound 0.5 µM) it was 0.518; in test [4] (first compound 0.04 µM), 0.349; in test [4] (first compound 0.1265 µM) it was 0.323; in test [4] (first compound 0.4 µM), 0.342; in test [4] (first compound 1.265 µM), 0.29. Further, in test [4] (first compound 4 µM), the relative viability is 0.336.
On to EPLC-272H, for which the relative viability is 0.312 in test [1] (first compound 0.005 µM); 0.273 in test [1] (first compound 0.01581 µM); 0.255 in test [1] (first compound 0.05 µM); 0.249 in test [1] (first compound 0.1581 µM); 0.289 in test [1] (first compound 0.5 µM); 0.255 in test [2] (first compound 1 µM). The relative viability is 0.13 in test [2] (first compound 3.162 µM); 0.169 in test [2] (first compound 10 µM); 0.202 in test [2] (first compound 31.62 µM); 0.292 in test [2] (first compound 100 µM); 0.333 in test [3] (first compound 0.005 µM); 0.341 in test [3] (first compound 0.01581 µM). Also, the relative viability in test [3] (first compound 0.05 µM) was 0.302; in test [3] (first compound 0.1581 µM) it was 0.381; in test [3] (first compound 0.5 µM) it was 0.336; in test [4] (first compound 0.04 µM), 0.285; in test [4] (first compound 0.1265 µM) it was 0.389; in test [4] (first compound 0.4 µM), 0.332. The relative viability worked out at 0.393 in test [4] (first compound 1.265 µM) and 0.364 in test [4] (first compound 4 µM).
On to H3255, for which the relative viability was determined as 0.573 in test [1] (first compound 0.005 µM); 0.551 in test [1] (first compound 0.05 µM); 0.486 in test [1] (first compound 0.1581 µM); 0.558 in test [1] (first compound 0.5 µM); 0.642 in test [2] (first compound 1 µM); 0.896 in test [2] (first compound 3.162 µM). Also, the relative viability was determined as 0.574 in test [2] (first compound 10 µM); 0.572 in test [2] (first compound 31.62 µM); 0.708 in test [2] (first compound 100 µM); 0.531 in test [3] (first compound 0.005 µM); 0.527 in test [3] (first compound 0.01581 µM); 0.568 in test [3] (first compound 0.05 µM). The relative viability in test [3] (first compound 0.1581 µM) was determined as 0.568; in test [3] (first compound 0.5 µM) it was 0.578; in test [4] (first compound 0.04 µM), 0.308; in test [4] (first compound 0.1265 µM), 0.396; in test [4] (first compound 0.4 µM), 0.315; in test [4] (first compound 1.265 µM), 0.332. Also, the relative viability in test [4] (first compound 4 µM) was 0.346.
HARA: the relative viability amounted to 0.727 in test [1] (first compound 0.005 µM); 0.707 in test [1] (first compound 0.01581 µM); 0.768 in test [1] (first compound 0.05 µM); 0.618 in test [1] (first compound 0.1581 µM); 0.949 in test [1] (first compound 0.5 µM); 0.107 in test [2] (first compound 3.162 µM). Further, the relative viability came to 0.117 in test [2] (first compound 10 µM); 0.0634 in test [2] (first compound 100 µM); 0.231 in test [3] (first compound 0.005 µM); 0.265 in test [3] (first compound 0.01581 µM); 0.309 in test [3] (first compound 0.05 µM); 0.26 in test [3] (first compound 0.1581 µM). Besides, the relative viability in test [3] (first compound 0.5 µM) was 0.258; in test [4] (first compound 0.04 µM), 0.124; in test [4] (first compound 0.1265 µM) it was 0.27; in test [4] (first compound 0.4 µM) it was 0.253; in test [4] (first compound 1.265 µM) it was 0.221; in test [4] (first compound 4 µM) it was 0.21.
For the cell line HCC-15, the relative viability in test [1] (first compound 0.005 µM) was found to be 0.403; in test [1] (first compound 0.01581 µM) it was 0.417; in test [1] (first compound 0.05 µM), 0.378; in test [1] (first compound 0.1581 µM) it was 0.372; in test [1] (first compound 0.5 µM), 0.383; in test [2] (first compound 1 µM), 0.463. Moreover, the relative viability is 0.544 in test [2] (first compound 3.162 µM); 0.245 in test [2] (first compound 10 µM); 0.212 in test [2] (first compound 31.62 µM); 0.165 in test [2] (first compound 100 µM); 0.211 in test [3] (first compound 0.005 µM); 0.228 in test [3] (first compound 0.01581 µM). The relative viability in test [3] (first compound 0.05 µM) came out at 0.23; in test [3] (first compound 0.1581 µM), 0.22; in test [3] (first compound 0.5 µM) it was 0.211; in test [4] (first compound 0.04 µM) it was 0.628; in test [4] (first compound 0.1265 µM), 0.696; in test [4] (first compound 0.4 µM), 0.708. Also, the results for the relative viability in test [4] (first compound 1.265 µM) and in test [4] (first compound 4 µM) were 0.669 and 0.732, respectively.
As for HCC-44, the relative viability was determined as 1.05 in test [1] (first compound 0.005 µM); 1.1 in test [1] (first compound 0.01581 µM); 1.05 in test [1] (first compound 0.05 µM); 1.06 in test [1] (first compound 0.1581 µM); 1.03 in test [1] (first compound 0.5 µM); 0.748 in test [2] (first compound 1 µM). The relative viability in test [2] (first compound 3.162 µM) worked out at 1.07; in test [2] (first compound 10 µM), 0.685; in test [2] (first compound 31.62 µM), 0.461; in test [2] (first compound 100 µM), 0.452; in test [3] (first compound 0.005 µM), 0.625; in test [3] (first compound 0.01581 µM) it was 0.631. Further, the values for the relative viability in test [3] (first compound 0.05 µM), in test [3] (first compound 0.1581 µM) and in test [3] (first compound 0.5 µM) were 0.626, 0.624 and 0.676, respectively.
Regarding HCC-78, the relative viability in test [1] (first compound 0.005 µM) was 0.955; in test [1] (first compound 0.01581 µM), 0.683; in test [1] (first compound 0.05 µM) it was 0.518; in test [1] (first compound 0.1581 µM), 0.615; in test [1] (first compound 0.5 µM), 0.986; in test [2] (first compound 1 µM) it was 0.56. The relative viability is 0.543 in test [2] (first compound 3.162 µM); 0.423 in test [2] (first compound 10 µM); 0.35 in test [2] (first compound 31.62 µM); 0.404 in test [2] (first compound 100 µM); 0.919 in test [3] (first compound 0.005 µM); 0.941 in test [3] (first compound 0.01581 µM). The relative viability was 0.933 in test [3] (first compound 0.05 µM); 0.974 in test [3] (first compound 0.1581 µM); 0.962 in test [3] (first compound 0.5 µM); 0.403 in test [4] (first compound 0.04 µM); 0.201 in test [4] (first compound 0.1265 µM); 0.433 in test [4] (first compound 0.4 µM). Besides, the relative viability in test [4] (first compound 4 µM) amounted to 0.363.
With HCC-366, the relative viability in test [1] (first compound 0.005 µM) stood at 0.415; in test [1] (first compound 0.01581 µM), 0.417; in test [1] (first compound 0.05 µM), 0.391; in test [1] (first compound 0.1581 µM), 0.359; in test [1] (first compound 0.5 µM), 0.333; in test [2] (first compound 1 µM) it was 0.0661. Besides, the relative viability was found to be 0.0593 in test [2] (first compound 3.162 µM); 0.0876 in test [2] (first compound 10 µM); 0.0623 in test [2] (first compound 100 µM); 0.151 in test [3] (first compound 0.005 µM); 0.168 in test [3] (first compound 0.01581 µM); 0.182 in test [3] (first compound 0.05 µM). Besides, the relative viability in test [3] (first compound 0.1581 µM) amounted to 0.208; in test [3] (first compound 0.5 µM) it was 0.224; in test [4] (first compound 0.04 µM), 0.544; in test [4] (first compound 0.1265 µM), 0.621; in test [4] (first compound 0.4 µM) it was 0.621; in test [4] (first compound 1.265 µM), 0.852. Further, in test [4] (first compound 4 µM), the relative viability was determined as 0.659.

The values are drawn from the supplement of paper PMC10307832.
